Measured values as given in patent publication US8623661B2, “Iron chelating agent, method for producing same, method for determining amount of iron ions and method for trapping iron ions” (National University Corporation Asahikawa Medical College, priority 2008, dated 2014).

Key:
[1] = system: iron citrate complex ammonium salt (FAC); assay: Evaluation A: chelating ability with iron, absorbance after adding chelating agent to iron citrate complex ammonium salt (FAC) solution; assay type: binding; conditions: for [B] absorbance after addition of iron chelating agent / [B]-[A]: 470 nm; for [B]-[A]: minus blank
Method: Evaluation was carried out by the following evaluation method A as to whether the iron chelating agent according to Example 1 had chelating ability with iron.
335 mg of the iron chelating agent (MW:209.2) according to Example 1 was added to a 50 mL conical tube, 15 mL of Dulbecco's phosphate buffered saline (pH 7.2;1×D-PBS) was added thereto, 70 mg of sodium hydroxide (MW:40.0) crystal was added thereto, followed by vigorously stirring (shaking) for 10 minutes, and centrifugation (1000 rpm, flashing) was carried out before the lid was opened. Then, 16.75 mL of 1×D-PBS (pH 7.2) was added thereto, and an iron chelating agent solution was prepared having a total amount of 31.75 mL.
Further, 1×D-PBS (pH 7.2) was added to FAC solution (20 mM) to prepare an iron citrate complex ammonium salt solution having a concentration of iron ions of 2 mM (“FAC solution (2 mM)”).
Iron citrate complex ammonium salt solution [FAC solution (20 mM), FAC solution (2 mM)]”, and 1×D-PBS (pH 7.2) were mixed at the ratios shown in Tables 1 to 2, the absorbance of the mixture (wavelength 470 nm) was measured by using a spectrophotometer (trade name “NanoDrop ND-1000 Full-spectrum UV/Vis Spectrophotometer”, manufactured by SCRUM Corporation, UV-Vis Module, Measure), and the absorbance of blank ([A] in Tables 1 to 2) was determined. Then, 158 μL of Fe-Ser•Na (50 mM) was added to the mixture, the absorbance (wavelength 470 nm) was measured as described above, and the absorbance after addition of iron chelating agent according to Examples ([B] in Tables 1 to 2) was determined.

[2] = system: iron nitrilotriacetate complex (Fe-NTA); assay: Evaluation B: chelating ability with iron, absorbance after adding chelating agent to iron nitrilotriacetate complex (Fe-NTA) solution; assay type: binding; conditions: for [B] absorbance after addition of iron chelating agent / [B]-[A]: 470 nm; for [B]-[A]: minus blank
Method: Evaluation was carried out by the following evaluation method B as to whether the iron chelating agent according to Example 1 had chelating ability with iron.
An iron chelating agent solution (Fe-Ser•Na (50 mM)) having an iron chelating agent concentration of 50 mM was prepared in the same manner as the preparation method of the iron chelating agent solution in evaluation method A of the iron chelating agent.
Ferric chloride-6 hydrate FeCl3.6H2O (MW270.30) crystals were dissolved in Milli-Q water to prepare an 80 mM solution (A liquid). Meanwhile, 160 mM of nitrilotriacetic acid solution (B liquid) was prepared by dissolving crystals of the free salt of NTA (191.14) in 6N hydrochloric acid. 10 mL of A liquid and 10 mL of B liquid was taken in a beaker, and sodium hydrogen carbonate NaHCO3 crystals were added bit by bit while stirring slowly. When gas generation was suppressed and the solution changed to a dark green color, the addition of NaHCO3 was completed. Finally, iron nitrilotriacetate complex solution “Fe-NTA solution (20 mM)” having an iron ion concentration of 20 mM made up to 40 mL was prepared.
Further, 1×D-PBS (pH 7.2) was added to Fe-NTA solution (20 mM) to prepare an iron nitrilotriacetate complex solution having a concentration of iron ions of 2 mM (“Fe-NTA solution (2 mM)”).
Iron nitrilotriacetate complex solution [Fe-NTA solution (20 mM), Fe-NTA solution (2 mM)], and 1×D-PBS (pH 7.2) were mixed at the ratios shown in Tables 3 to 4, the absorbance of the mixture (wavelength 470 nm) was measured by using a spectrophotometer (trade name “NanoDrop ND-1000 Full-spectrum UV/Vis Spectrophotometer”, manufactured by SCRUM Corporation, UV-Vis Module, Measure), and the absorbance of blank ([A] in Tables 3 to 4) was determined. Then, 158 μl of Fe-Ser•Na (50 mM) was added to the mixture, the absorbance (wavelength 470 nm) was measured as described above, and the absorbance after the addition of the iron chelating agent according to Examples ([B] in Tables 3 to 4) was determined.

[3] = FAC solution (2 mM) 0 μl + 1xD-PBS 160 μl + Fe-Ser•Na (50 mM) 158 μl
[4] = FAC solution (2 mM) 10 μl + 1xD-PBS 150 μl + Fe-Ser•Na (50 mM) 158 μl
[5] = FAC solution (2 mM) 20 μl + 1xD-PBS 140 μl + Fe-Ser•Na (50 mM) 158 μl
[6] = FAC solution (2 mM) 40 μl + 1xD-PBS 120 μl + Fe-Ser•Na (50 mM) 158 μl
[7] = FAC solution (2 mM) 80 μl + 1xD-PBS 80 μl + Fe-Ser•Na (50 mM) 158 μl
[8] = FAC solution (2 mM) 160 μl + 1xD-PBS 0 μl + Fe-Ser•Na (50 mM) 158 μl
[9] = FAC solution (20 mM) 0 μl + 1xD-PBS 160 μl + Fe-Ser•Na (50 mM) 158 μl
[10] = FAC solution (20 mM) 10 μl + 1xD-PBS 150 μl + Fe-Ser•Na (50 mM) 158 μl
[11] = FAC solution (20 mM) 20 μl + 1xD-PBS 140 μl + Fe-Ser•Na (50 mM) 158 μl
[12] = FAC solution (20 mM) 40 μl + 1xD-PBS 120 μl + Fe-Ser•Na (50 mM) 158 μl
[13] = FAC solution (20 mM) 80 μl + 1xD-PBS 80 μl + Fe-Ser•Na (50 mM) 158 μl
[14] = FAC solution (20 mM) 160 μl + 1xD-PBS 0 μl + Fe-Ser•Na (50 mM) 158 μl
[15] = Fe-NTA solution (2 mM) 0 μl + 1xD-PBS 160 μl + Fe-Ser•Na (50 mM) 158 μl
[16] = Fe-NTA solution (2 mM) 10 μl + 1xD-PBS 150 μl + Fe-Ser•Na (50 mM) 158 μl
[17] = Fe-NTA solution (2 mM) 20 μl + 1xD-PBS 140 μl + Fe-Ser•Na (50 mM) 158 μl
[18] = Fe-NTA solution (2 mM) 40 μl + 1xD-PBS 120 μl + Fe-Ser•Na (50 mM) 158 μl
[19] = Fe-NTA solution (2 mM) 80 μl + 1xD-PBS 80 μl + Fe-Ser•Na (50 mM) 158 μl
[20] = Fe-NTA solution (2 mM) 160 μl + 1xD-PBS 0 μl + Fe-Ser•Na (50 mM) 158 μl
[21] = Fe-NTA solution (20 mM) 0 μl + 1xD-PBS 160 μl + Fe-Ser•Na (50 mM) 158 μl
[22] = Fe-NTA solution (20 mM) 10 μl + 1xD-PBS 150 μl + Fe-Ser•Na (50 mM) 158 μl
[23] = Fe-NTA solution (20 mM) 20 μl + 1xD-PBS 140 μl + Fe-Ser•Na (50 mM) 158 μl
[24] = Fe-NTA solution (20 mM) 40 μl + 1xD-PBS 120 μl + Fe-Ser•Na (50 mM) 158 μl
[25] = Fe-NTA solution (20 mM) 80 μl + 1xD-PBS 80 μl + Fe-Ser•Na (50 mM) 158 μl
[26] = Fe-NTA solution (20 mM) 160 μl + 1xD-PBS 0 μl + Fe-Ser•Na (50 mM) 158 μl

## O=C(O)C(CO)NCc1ccccc1O (stereo not shown) [Example 1, o-[(1-carboxy-2-hydroxyethyl)-amino-methyl]-phenol]
[1]; [3]
  [B] absorbance after addition of iron chelating agent: 0.015
  [B]-[A]: 0.012
[1]; [4]
  [B] absorbance after addition of iron chelating agent: 0.027
  [B]-[A]: 0.023
[1]; [5]
  [B] absorbance after addition of iron chelating agent: 0.040
  [B]-[A]: 0.035
[1]; [6]
  [B] absorbance after addition of iron chelating agent: 0.055
  [B]-[A]: 0.046
[1]; [7]
  [B] absorbance after addition of iron chelating agent: 0.104
  [B]-[A]: 0.096
[1]; [8]
  [B] absorbance after addition of iron chelating agent: 1.181
  [B]-[A]: 0.169
[1]; [9]
  [B] absorbance after addition of iron chelating agent: 0.010
  [B]-[A]: 0.010
[1]; [10]
  [B] absorbance after addition of iron chelating agent: 0.109
  [B]-[A]: 0.104
[1]; [11]
  [B] absorbance after addition of iron chelating agent: 0.208
  [B]-[A]: 0.199
[1]; [12]
  [B] absorbance after addition of iron chelating agent: 0.405
  [B]-[A]: 0.390
[1]; [13]
  [B] absorbance after addition of iron chelating agent: 0.800
  [B]-[A]: 0.771
[1]; [14]
  [B] absorbance after addition of iron chelating agent: 1.368
  [B]-[A]: 1.311
[1]; conclusion from Tables 1 to 2
  capture of iron ions from the iron citrate complex: iron ions can be captured
  chelating ability with iron: has chelating ability with iron
[2]; [15]
  [B] absorbance after addition of iron chelating agent: 0.011
  [B]-[A]: 0.007
[2]; [16]
  [B] absorbance after addition of iron chelating agent: 0.017
  [B]-[A]: 0.014
[2]; [17]
  [B] absorbance after addition of iron chelating agent: 0.026
  [B]-[A]: 0.023
[2]; [18]
  [B] absorbance after addition of iron chelating agent: 0.041
  [B]-[A]: 0.036
[2]; [19]
  [B] absorbance after addition of iron chelating agent: 0.075
  [B]-[A]: 0.071
[2]; [20]
  [B] absorbance after addition of iron chelating agent: 0.135
  [B]-[A]: 0.125
[2]; [21]
  [B] absorbance after addition of iron chelating agent: 0.008
  [B]-[A]: 0.005
[2]; [22]
  [B] absorbance after addition of iron chelating agent: 0.081
  [B]-[A]: 0.077
[2]; [23]
  [B] absorbance after addition of iron chelating agent: 0.163
  [B]-[A]: 0.153
[2]; [24]
  [B] absorbance after addition of iron chelating agent: 0.322
  [B]-[A]: 0.296
[2]; [25]
  [B] absorbance after addition of iron chelating agent: 0.731
  [B]-[A]: 0.676
[2]; [26]
  [B] absorbance after addition of iron chelating agent: 1.244
  [B]-[A]: 1.132
[2]; conclusion from Tables 3 to 4
  capture of iron ions from an iron nitrilotriacetate complex: iron ions can be captured
  chelating ability with iron: has chelating ability with iron
